Source: PubChem BioAssay (NCI)
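Where inhibition never reached the appropriate level, the endpoint shown equals the highest concentration tested. Otherwise, values were interpolated linearly from a five-concentration, 48-hour dose response in 96-well plates. GI50 = concentration required for 50% inhibition of growth. TGI: concentration producing complete growth inhibition.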

Columns and labels:
Assay in all cases: growth of human tumour cells (NCI), 48 h
CAKI-1 renal = test system: CAKI-1 renal
BT-549 breast = test system: BT-549 breast
U251 CNS = test system: U251 CNS
786-0 renal = test system: 786-0 renal
HT29 colon = test system: HT29 colon
HOP-92 NSCLC = test system: HOP-92 NSCLC
SW-620 colon = test system: SW-620 colon
M14 melanoma = test system: M14 melanoma
LOX IMVI melanoma = test system: LOX IMVI melanoma
T-47D breast = test system: T-47D breast
UACC-257 melanoma = test system: UACC-257 melanoma
MDA-MB-231 breast = test system: MDA-MB-231 breast
MDA-MB-435 = test system: MDA-MB-435
OVCAR-3 ovarian = test system: OVCAR-3 ovarian
NCI/ADR-RES ovarian = test system: NCI/ADR-RES ovarian
HCT-15 colon = test system: HCT-15 colon
HL-60(TB) leukemia = test system: HL-60(TB) leukemia
UACC-62 melanoma = test system: UACC-62 melanoma
PC-3 prostate = test system: PC-3 prostate
NCI-H23 lung = test system: NCI-H23 lung
UO-31 renal = test system: UO-31 renal
HCC-2998 colon = test system: HCC-2998 colon
A498 renal = test system: A498 renal
NCI-H522 lung = test system: NCI-H522 lung
IGROV1 ovarian = test system: IGROV1 ovarian
CCRF-CEM leukemia = test system: CCRF-CEM leukemia
RXF 393 renal = test system: RXF 393 renal
SF-539 CNS = test system: SF-539 CNS
OVCAR-8 ovarian = test system: OVCAR-8 ovarian
OVCAR-4 ovarian = test system: OVCAR-4 ovarian
SR leukemia = test system: SR leukemia
RPMI-8226 leukemia = test system: RPMI-8226 leukemia
SK-MEL-28 melanoma = test system: SK-MEL-28 melanoma
NCI-H460 lung = test system: NCI-H460 lung
SK-OV-3 ovarian = test system: SK-OV-3 ovarian
HCT-116 colon = test system: HCT-116 colon
SK-MEL-2 melanoma = test system: SK-MEL-2 melanoma
SN12C renal = test system: SN12C renal
SF-268 CNS = test system: SF-268 CNS
TK-10 renal = test system: TK-10 renal
DU-145 prostate = test system: DU-145 prostate
KM12 colon = test system: KM12 colon
SNB-75 CNS = test system: SNB-75 CNS
MALME-3M melanoma = test system: MALME-3M melanoma
HS 578T breast = test system: HS 578T breast
SNB-19 CNS = test system: SNB-19 CNS
A549 NSCLC = test system: A549 NSCLC
HOP-62 NSCLC = test system: HOP-62 NSCLC
MOLT-4 leukemia = test system: MOLT-4 leukemia
NCI-H226 lung = test system: NCI-H226 lung
MCF7 breast = test system: MCF7 breast
SF-295 CNS = test system: SF-295 CNS
OVCAR-5 ovarian = test system: OVCAR-5 ovarian
ACHN renal = test system: ACHN renal
COLO 205 colon = test system: COLO 205 colon
K-562 leukemia = test system: K-562 leukemia
SK-MEL-5 melanoma = test system: SK-MEL-5 melanoma

`CC(NNC(=S)N1CCCCCC1)c1ccc2ccccc2n1` (centres undefined) was tested, and the GI50 (CAKI-1 renal) was 0.456 µM, the TGI (CAKI-1 renal) was 10.8 µM and the GI50 (BT-549 breast) was 7.45 µM. For the same molecule, the TGI (BT-549 breast) was 58.9 µM, the GI50 (U251 CNS) was 0.92 µM and the TGI (U251 CNS) was 20.4 µM. For the same molecule, the GI50 (786-0 renal) was 3.38 µM, the TGI (786-0 renal) was 16.8 µM and the GI50 (HT29 colon) was 2.54 µM. It also gave a TGI (HT29 colon) of 31.1 µM, a GI50 (HOP-92 NSCLC) of 0.769 µM and a TGI (HOP-92 NSCLC) of 34.3 µM. The GI50 (SW-620 colon) was 3.23 µM, the TGI (SW-620 colon) was 33.2 µM and the GI50 (M14 melanoma) was 1.85 µM. For the same molecule, the TGI (M14 melanoma) was 11.7 µM, the GI50 (LOX IMVI melanoma) was 2.56 µM and the TGI (LOX IMVI melanoma) was 15.5 µM. The GI50 (T-47D breast) was 1.91 µM, the TGI (T-47D breast) was 28.7 µM and the GI50 (UACC-257 melanoma) was 1.74 µM. For the same molecule, the TGI (UACC-257 melanoma) was 17 µM, the GI50 (MDA-MB-231 breast) was 2.03 µM and the TGI (MDA-MB-231 breast) was 20.5 µM. For the same molecule, the GI50 (MDA-MB-435) was 2.25 µM, the TGI (MDA-MB-435) was 21.4 µM and the GI50 (OVCAR-3 ovarian) was 0.41 µM. For the same molecule, the TGI (OVCAR-3 ovarian) was 18.8 µM, the GI50 (NCI/ADR-RES ovarian) was 2.29 µM and the TGI (NCI/ADR-RES ovarian) was over 100 µM. For the same molecule, the GI50 (HCT-15 colon) was 1.06 µM, the TGI (HCT-15 colon) was 51.6 µM and the GI50 (HL-60(TB) leukemia) was 0.363 µM. The TGI (HL-60(TB) leukemia) was 12.1 µM, the GI50 (UACC-62 melanoma) was 1.69 µM and the TGI (UACC-62 melanoma) was 11.5 µM. For the same molecule, the GI50 (PC-3 prostate) was 2.07 µM, the TGI (PC-3 prostate) was over 63 µM and the GI50 (NCI-H23 lung) was 11.8 µM. For the same molecule, the TGI (NCI-H23 lung) was over 87.1 µM, the GI50 (UO-31 renal) was 0.478 µM and the TGI (UO-31 renal) was 14.1 µM. The GI50 (HCC-2998 colon) was 3.35 µM, the TGI (HCC-2998 colon) was 22.6 µM and the GI50 (A498 renal) was 4.61 µM. It also gave a TGI (A498 renal) of 22.1 µM, a GI50 (NCI-H522 lung) of 2.69 µM and a TGI (NCI-H522 lung) of 21.6 µM. For the same molecule, the GI50 (IGROV1 ovarian) was 1.85 µM, the TGI (IGROV1 ovarian) was 51.3 µM and the GI50 (CCRF-CEM leukemia) was 0.765 µM. The TGI (CCRF-CEM leukemia) was over 100 µM, the GI50 (RXF 393 renal) was 4.7 µM and the TGI (RXF 393 renal) was 21.2 µM. The GI50 (SF-539 CNS) was 1.68 µM, the TGI (SF-539 CNS) was 12.6 µM and the GI50 (OVCAR-8 ovarian) was 1.06 µM. It also gave a TGI (OVCAR-8 ovarian) of over 58.7 µM, a GI50 (OVCAR-4 ovarian) of 0.0701 µM and a TGI (OVCAR-4 ovarian) of 13.8 µM. The GI50 (SR leukemia) was 0.759 µM, the TGI (SR leukemia) was over 48.9 µM and the GI50 (RPMI-8226 leukemia) was 5.36 µM. It also gave a TGI (RPMI-8226 leukemia) of over 100 µM, a GI50 (SK-MEL-28 melanoma) of 5.18 µM and a TGI (SK-MEL-28 melanoma) of 40.4 µM. The GI50 (NCI-H460 lung) was 1.05 µM, the TGI (NCI-H460 lung) was over 78.9 µM and the GI50 (SK-OV-3 ovarian) was 6.24 µM. For the same molecule, the TGI (SK-OV-3 ovarian) was 26.9 µM, the GI50 (HCT-116 colon) was 0.688 µM and the TGI (HCT-116 colon) was 17.8 µM. It also gave a GI50 (SK-MEL-2 melanoma) of 13.8 µM, a TGI (SK-MEL-2 melanoma) of 41.5 µM and a GI50 (SN12C renal) of 1.84 µM. It also gave a TGI (SN12C renal) of over 57.3 µM, a GI50 (SF-268 CNS) of 1.72 µM and a TGI (SF-268 CNS) of 43.7 µM. The GI50 (TK-10 renal) was 1.21 µM, the TGI (TK-10 renal) was 21 µM and the GI50 (DU-145 prostate) was 2.22 µM. It also gave a TGI (DU-145 prostate) of 18.2 µM, a GI50 (KM12 colon) of 2.57 µM and a TGI (KM12 colon) of 41.4 µM. It also gave a GI50 (SNB-75 CNS) of 12.5 µM, a TGI (SNB-75 CNS) of 27.5 µM and a GI50 (MALME-3M melanoma) of 3.15 µM. For the same molecule, the TGI (MALME-3M melanoma) was 37.8 µM, the GI50 (HS 578T breast) was 14.5 µM and the TGI (HS 578T breast) was over 100 µM. The GI50 (SNB-19 CNS) was 4.16 µM, the TGI (SNB-19 CNS) was over 100 µM and the GI50 (A549 NSCLC) was 1.13 µM. It also gave a TGI (A549 NSCLC) of 27 µM, a GI50 (HOP-62 NSCLC) of 3.93 µM and a TGI (HOP-62 NSCLC) of over 100 µM. For the same molecule, the GI50 (MOLT-4 leukemia) was 2.18 µM, the TGI (MOLT-4 leukemia) was over 55.5 µM and the GI50 (NCI-H226 lung) was 2.74 µM. It also gave a TGI (NCI-H226 lung) of 23.2 µM, a GI50 (MCF7 breast) of 0.338 µM and a TGI (MCF7 breast) of 15.2 µM. For the same molecule, the GI50 (SF-295 CNS) was 0.843 µM, the TGI (SF-295 CNS) was 13.2 µM and the GI50 (OVCAR-5 ovarian) was 9.5 µM. The TGI (OVCAR-5 ovarian) was 38.5 µM, the GI50 (ACHN renal) was 0.66 µM and the TGI (ACHN renal) was 14.6 µM. The GI50 (COLO 205 colon) was 0.284 µM, the TGI (COLO 205 colon) was 19 µM and the GI50 (K-562 leukemia) was 2.14 µM. The TGI (K-562 leukemia) was over 100 µM, the GI50 (SK-MEL-5 melanoma) was 1.95 µM and the TGI (SK-MEL-5 melanoma) was 14.8 µM.
